“And” between values parts separate entries of the source, which are not always exact repeats. Identical values can stand only once. “Also recorded” adds a separate entry of the source.
Tests used:
K562 cells [1] = system: K562 cells
[2] = Stability of As-LHP complexes in Milli-Q water by XAS; assay type: physicochemical; details: 37° C.; for stability in Milli-Q water: XANES
Experimental: The stability of As-LHP complexes was studied by XAS. Samples were prepared by dissolving HyAs(LHP), MeAs(LHP) or PhAs(LHP) (1.5 mM) in Milli-Q water which was maintained at 37° C. Immediately prior to analysis the arsenic-peptide solution (600 μL) was mixed with ethylene glycol (300 μL) to prevent crystallisation during rapid freezing. The resultant solution (1 mM final As concentration) was transferred by syringe to the sample holder which was sealed with Kapton tape. The sample was then rapidly submerged in liquid nitrogen and transferred to the liquid helium cryostat where it was analysed at 10° K.
Arsenic K-edge XAS data were collected at the Australian National Beamline Facility (ANBF, beamline 20B) KEK, Tsukuba, Japan with a beam energy of 2.5 GeV, and beam current of 300-400 mA. A Si[111] channel-cut monochromator was detuned by 50% to reject harmonics. All spectra were recorded in fluorescence mode at ˜10° K (maintained with a closed-cycle He Cryolndustries REF-1577-D22 cryostat) using a 36-element Ge-array detector (Eurisys/Canberra Industries) and a 1-mm vertical slit width. XAS spectra were obtained at the zero time point and then at a later time point, 4 h or 14 h. The spectra from the two time points were processed and analysed using EXAFS PAK.

hPBMC = assay: Cellular As uptake, hPBMC; assay type: cell-based, human; details: 24-h treatment, 1.5 μM As
Experimental: (§1) FIG. 24 is a graphical summary of the cellular As concentrations associated with the specified cell lines following 24-h treatment (1.5 μM As). The results are represented as the mean and standard deviation of triplicate samples.
(§2) FIG. 24 summarises the cellular As concentrations associated with the different cell types following 24-h treatment with the various As compounds (1.5 μM As). The leukemia cell lines, K562, HL-60, Kasumi-1 and KARPAS 45, are depicted in red (lighter of the filled in blocks), and the non-leukemia cell types are depicted in black (darkest shading), with the cancerous adherent cells, HepG2, in the diagonal stripes, and the normal cells, hPBMC, in solid black.

[3] = system: human peripheral blood mononuclear cells (hPBMC)
Kasumi-1 cells [4] = assay: Cellular As uptake, Kasumi-1 cells; assay type: cell-based, human; details: 1.5 μM As
Experimental: as §1, §2

HepG2 cells [5] = assay type: cell-based, human
K562 cells [6] = assay: Cellular As uptake, K562 cells; assay type: cell-based, human; details: K562, 24-h treatment, 1.5 μM As
Experimental: as §1, §2

HL-60 cells [7] = assay: Cellular As uptake, HL-60 cells; assay type: cell-based, human; details: HL-60, 24-h treatment, 1.5 μM As
Experimental: as §1, §2

KARPAS 45 cells [8] = assay: Cellular As uptake, KARPAS 45 cells; assay type: cell-based, human; details: KARPAS 45, 24-h treatment, 1.5 μM As
Experimental: as §1, §2

KARPAS 45 cells [9] = system: KARPAS 45 cells
HepG2 cells [10] = system: HepG2 cells
HL-60 cells [11] = system: HL-60 cells
[12] = Stability of As-LHP complexes in cell medium (IMDM) by XAS; assay type: physicochemical; details: 37° C., 0 h vs 24 h; for stability in IMDM: XANES
Experimental: The stability of the two most promising As-LHP complexes was also studied in cell medium (IMDM). Samples were prepared by dissolving MeAs(LHP) or PhAs(LHP) (1.5 mM) in IMDM which was maintained at 37° C. The same protocol was followed as that for the Milli-Q water stability studies. XAS spectra were obtained at the zero time point and then at 24 h. As with the Milli-Q water samples, the spectra from the two time points were processed, fitted and quantified using EXAFSPAK.

[13] = system: Chinese hamster (CH) solid tumour cells
Kasumi-1 cells [14] = system: Kasumi-1 cells
K562 cells [15] = assay: Fate of PhAs(LHP) in K562 cells (micrographs, microprobe SR-XRF, XANES); assay type: cell-based, human; details: K562, 10 μM
Experimental: (§3) The cell lines, K562 and HL-60, were obtained and maintained as previously described. Glutaraldehyde (25% solution), Spurr's low viscosity embedding resin, 3-mm gold Finder grids, and toluidine blue were sourced from Proscitech (Kirwan, Australia). Thin-sectioned cells were prepared for microprobe SRXRF analysis using procedures documented previously. Briefly the cells were treated in cell culture flasks (75 cm^2) with either IMDM (for the control cells, 4 h or 24 h) or PhAs(LHP) (10 μM in IMDM, 4 h or 24 h). The cells were washed with PBS (2 times) using centriguation and the final cell pellet was fixed in gluteraldehyde (1 mL, 2% v/v in PBS) for 2 h at room temperature; and dehydrated in ethanol (30%×2, 50%×2, 70%×2, 80%×2, 90%×2, 95%×2, 100%×4). Infiltration was achieved by rocking the cells in 50% ethanol/50% Spurr's resin overnight and then replacing with 100% Spurr's resin (×2 over 2 days) to ensure the removal of all traces of water. On the final day, the cells were embedded in 100% Spurr's resin, centrifuged (8000 g, 1 h) and cured at 60° C. overnight in a Beem capsule. Thin sections (1 μm) of the cell pellet were cut using an ultramicrotome (Leica EM UC7). The thin-sections were stained with toluidine blue before mounting on silicon nitride membranes.
The gold Finder grids were attached to kinematic mounts designed to fit both the light microscope (Leica DMXRE Epi-fluorescence/visual microscope) and the X-ray microprobe (2-ID-D). […]
Microprobe SR-XRF was performed at beamline 2-ID-D at the Advanced Photon Source, Argonne National Laboratory (Lemont, Ill., USA). […] Fluorescent X-rays were detected using a dwell time of 2.5 s/pt and an energy dispersive Vortex EM (Hitachi High-Technologies Science America, Northridge, Calif.) silicon drift detector. […] Conversion of elemental fluorescence intensities to absolute densities in microgram per square centimetre (μg/cm^2) was performed by comparing X-ray fluorescence intensities with those from thin film standards, NBS-1832 and NBS-1833 (NIST, Gaithersburg, Md., USA).

HL-60 cells [16] = assay: Fate of PhAs(LHP) in HL-60 cells (micrographs, microprobe SR-XRF, XANES); assay type: cell-based, human; details: HL-60, 10 μM
Experimental: as §3
The gold Finder grids were attached to kinematic mounts designed to fit both the light microscope (Leica DMXRE Epi-fluorescence/visual microscope) and the X-ray microprobe (2-ID-D). Optical micrographs and XY coordinates were obtained in order to locate suitable cells for analysis.
Microprobe SR-XRF was performed at beamline 2-ID-D at the Advanced Photon Source, Argonne National Laboratory (Lemont, Ill., USA). The 11.9-keV X-ray beam was focused to a spot size of 0.3×0.3 μm^2 using two zone plates. The samples were housed in a helium atmosphere and the distributions of the elements from P (2.1 keV) to As (11.9 keV) were mapped by raster scanning the sample in 0.3 μm steps, with the aid of a XYZ motorised stage. Fluorescent X-rays were detected using a dwell time of 2.5 s/pt and an energy dispersive Vortex EM (Hitachi High-Technologies Science America, Northridge, Calif.) silicon drift detector. Elemental distribution maps were processed using MAPS Version 1.7.3.02 software package (S. Vogt, Advanced Photon Source). Conversion of elemental fluorescence intensities to absolute densities in microgram per square centimetre (μg/cm^2) was performed by comparing X-ray fluorescence intensities with those from thin film standards, NBS-1832 and NBS-1833 (NIST, Gaithersburg, Md., USA).

A549 cells = details: 24-h treatment

## CC(=O)N[C@H]1CS[As](O)SC[C@@H](C(=O)O)NC(=O)[C@H](CCCNC(=N)N)NC(=O)[C@H](CCCNC(=N)N)NC(=O)[C@H](CC(C)C)NC(=O)[C@H](CCCNC(=N)N)NC(=O)[C@H](Cc2c[nH]cn2)NC(=O)[C@H](Cc2ccc(O)cc2)NC(=O)[C@H](C)NC1=O (stereo partly shown) [HyAs(LHP)]
K562 cells [1]
  IC50 as percentage of that of ATO: 60%
[2]; 0 h vs 4 h
  stability in Milli-Q water: not stable in Milli-Q water for 4 h; also recorded: lack of stability

## CC(=O)N[C@H]1CS[As](c2ccccc2)SC[C@@H](C(=O)O)NC(=O)[C@H](CCCNC(=N)N)NC(=O)[C@H](CC(C)C)NC(=O)[C@H](Cc2ccc(O)cc2)NC(=O)[C@H](CCCNC(=N)N)NC(=O)[C@H](Cc2c[nH]cn2)NC(=O)[C@H](CCCNC(=N)N)NC(=O)[C@H](C)NC1=O (stereo partly shown) [PhAs(sLHP)]
hPBMC
  cellular As concentration: no detectable As uptake
[3]
  IC50: 665 ± 8 µM
Kasumi-1 cells [4]; Kasumi-1, 24-h treatment
  cellular As concentration: no detectable As uptake
HepG2 cells [5]
  cellular As concentration: no detectable As uptake
K562 cells [1]
  IC50: 790 ± 30 µM
  times less toxic than PhAs(LHP): 1600 times
K562 cells [6]
  cellular As concentration: no detectable As uptake
HL-60 cells [7]
  cellular As concentration: no detectable As uptake
KARPAS 45 cells [8]
  cellular As concentration: no detectable As uptake
KARPAS 45 cells [9]
  times less toxic than PhAs(LHP): 32 times
HepG2 cells [10]
  IC50: 960 ± 10 µM
HL-60 cells [11]
  IC50: 205 ± 4 µM

## CC(=O)N[C@H]1CS[As](C)SC[C@@H](C(=O)O)NC(=O)[C@H](CCCNC(=N)N)NC(=O)[C@H](CCCNC(=N)N)NC(=O)[C@H](CC(C)C)NC(=O)[C@H](CCCNC(=N)N)NC(=O)[C@H](Cc2c[nH]cn2)NC(=O)[C@H](Cc2ccc(O)cc2)NC(=O)[C@H](C)NC1=O (stereo partly shown) [MeAs(LHP)]
K562 cells [1]
  IC50 as percentage of that of ATO: 37%
  IC50 as percentage of that of HyAs(LHP): 60%
[2]; 0 h vs 14 h
  agreement between As K-edge XANES spectra at the two time points: 93%
  stability in Milli-Q water: good stability
[12]
  agreement between As K-edge XANES spectra at the two time points: 82%
  stability in IMDM: reasonable stability

## arsenic trioxide [ATO]
[3]
  IC50: 81.7 µM and 82 µM
  relative toxicity / IC50 versus another compound, in words (comparator in the value): approximately twice that obtained for arsenite
Kasumi-1 cells [4]; 24-h treatment
  cellular As concentration in Kasumi-1 cells, times greater than in HepG2 cells: 5.5 times
K562 cells [1]
  IC50: 9.7 ± 0.2 µM
  relative toxicity / IC50 versus another compound, in words (comparator in the value): approximately half that of arsenite
KARPAS 45 cells [9]
  IC50: 15.1 µM and 15 µM
  IC50 as percentage of the value for arsenite: 23%
HepG2 cells [10]
  IC50: 52 ± 3 µM
  times more toxic than arsenite: 1.7 times
HL-60 cells [11]
  IC50: 7 ± 0.1 µM
  relative toxicity / IC50 versus another compound, in words (comparator in the value): a little less than half that obtained for arsenite
[13]
  IC50: 23.3 ± 0.9 µM
Kasumi-1 cells [14]
  IC50: 61 ± 1 µM

## CC(=O)N[C@H]1CS[As](c2ccccc2)SC[C@@H](C(=O)O)NC(=O)[C@H](CCCNC(=N)N)NC(=O)[C@H](CCCNC(=N)N)NC(=O)[C@H](CC(C)C)NC(=O)[C@H](CCCNC(=N)N)NC(=O)[C@H](Cc2c[nH]cn2)NC(=O)[C@H](Cc2ccc(O)cc2)NC(=O)[C@H](C)NC1=O (stereo partly shown) [PhAs(LHP)]
hPBMC
  cellular As concentration: no detectable cellular As concentrations
[3]
  IC50: 495 ± 6 µM
  selectivity: IC50 in hPBMC, times greater than in K562 and HL-60 cells: approximately 1000 times
  selectivity: IC50 in hPBMC, times greater than in KARPAS 45 cells: approximately 64 times
Kasumi-1 cells [4]; 24-h treatment
  cellular As concentration in Kasumi-1 cells, times greater than in HL-60 cells: 1.4 times
  cellular As concentration in Kasumi-1 cells, times higher than in K562 cells: 1.2 times
  cellular As concentration in Kasumi-1 cells, times higher than in KARPAS 45 cells: 4.0 times
K562 cells [15]; 4 h
  cell morphology (toluidine-blue micrograph): clear evidence of cell stress with fragmentation of the nucleus
K562 cells [15]; 4 h and 24 h
  intracellular As distribution (microprobe SR-XRF): significant As throughout the cell with evidence of accumulation in the cell nucleus
K562 cells [15]; 24 h
  cell morphology (toluidine-blue micrograph): breakdown of the cell membrane and fragmented/dispersed nuclear material
HepG2 cells [5]
  cellular As concentration: no detectable cellular As concentrations
HL-60 cells [16]; 4 h
  cell morphology (toluidine-blue micrograph): cell distress is evident
  intracellular As distribution (microprobe SR-XRF): only small localisations of As
HL-60 cells [16]; 24 h
  cell morphology (toluidine-blue micrograph): high degree of cell degredation with evidence of cell demise
  intracellular As distribution (microprobe SR-XRF): the nucleus clearly contains a greater accumulation of As than the rest of the cell
[2]; 0 h vs 14 h
  agreement between As K-edge XANES spectra at the two time points: ~100%
  stability in Milli-Q water: stable in Milli-Q water for 14 h; also recorded: excellent stability
HepG2 cells [10]
  IC50: 978 ± 11 µM
  selectivity: IC50 in HepG2 cells, times greater than in K562 and HL-60 cells: ~2000 times
[12]
  agreement between As K-edge XANES spectra at the two time points: 97%
  stability in IMDM: reasonably stable in IMDM for 24 h; also recorded: good stability
A549 cells
  selectivity: IC50 in A549 cells, times greater than in K562 and HL-60 cells: 470 times
A549 cells; A549 cells, MTT
  IC50: 234 ± 5 µM
HL-60 cells [11]
  IC50: 0.5 ± 0.1 µM
  relative toxicity / IC50 versus another compound, in words (comparator in the value): three times greater toxicity toward HL-60 cells than the PAO starting material
[13]
  IC50: 770 ± 12 µM
  selectivity: IC50 in CH solid tumour cells, times greater than in K562 and HL-60 cells: approximately 1500 times
Kasumi-1 cells [14]
  IC50: 1.4 ± 0.1 µM
  relative toxicity / IC50 versus another compound, in words (comparator in the value): approximately forty times more toxic than ATO
  times more toxic than PAO: 3.6 times
  times more toxic than PhAs(sLHP): about 460 times

From patent US11819489B2 (priority 2017, dated 2023)
